Test system: SEM cells
Test: cell viability relative to DMSO control; higher = less cytotoxic
Details: 48 h
Outline: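 Viability, reported as a per-plate percentage of DMSO wells with cell-free wells as background, came from CellTiter-Glo One luminescence. Reading took place after 48 h at 37°C. Before that, NOMO1 or SEM (500 cells/well) or P12-Ichikawa (1000 cells/well) leukemia cells, adapted for at least four passages in each medium, were seeded in 1536-well plates (5 μl) and pin-dosed with library compounds in DMSO, 47 μM to 0.79 nM over 11 threefold points.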

[1] = HPLM + 10% dialyzed FBS, 0.000781 µM
[2] = HPLM + 10% dialyzed FBS, 0.00234 µM
[3] = HPLM + 10% dialyzed FBS, 0.00702 µM
[4] = HPLM + 10% dialyzed FBS, 0.0211 µM
[5] = HPLM + 10% dialyzed FBS, 0.0632 µM
[6] = HPLM + 10% dialyzed FBS, 0.19 µM
[7] = HPLM + 10% dialyzed FBS, 0.569 µM
[8] = HPLM + 10% dialyzed FBS, 1.71 µM
[9] = HPLM + 10% dialyzed FBS, 5.12 µM
[10] = HPLM + 10% dialyzed FBS, 15.4 µM
[11] = HPLM + 10% dialyzed FBS, 46.1 µM
[12] = RPMI 5 mM glucose + 10% FBS, 0.000781 µM
[13] = RPMI 5 mM glucose + 10% FBS, 0.00234 µM
[14] = RPMI 5 mM glucose + 10% FBS, 0.00702 µM
[15] = RPMI 5 mM glucose + 10% FBS, 0.0211 µM
[16] = RPMI 5 mM glucose + 10% FBS, 0.0632 µM
[17] = RPMI 5 mM glucose + 10% FBS, 0.19 µM
[18] = RPMI 5 mM glucose + 10% FBS, 0.569 µM
[19] = RPMI 5 mM glucose + 10% FBS, 1.71 µM
[20] = RPMI 5 mM glucose + 10% FBS, 5.12 µM
[21] = RPMI 5 mM glucose + 10% FBS, 15.4 µM
[22] = RPMI 5 mM glucose + 10% FBS, 46.1 µM
[23] = RPMI 5 mM glucose + 10% dialyzed FBS, 0.000781 µM
[24] = RPMI 5 mM glucose + 10% dialyzed FBS, 0.00234 µM
[25] = RPMI 5 mM glucose + 10% dialyzed FBS, 0.00702 µM
[26] = RPMI 5 mM glucose + 10% dialyzed FBS, 0.0211 µM
[27] = RPMI 5 mM glucose + 10% dialyzed FBS, 0.0632 µM
[28] = RPMI 5 mM glucose + 10% dialyzed FBS, 0.19 µM
[29] = RPMI 5 mM glucose + 10% dialyzed FBS, 0.569 µM
[30] = RPMI 5 mM glucose + 10% dialyzed FBS, 1.71 µM
[31] = RPMI 5 mM glucose + 10% dialyzed FBS, 5.12 µM
[32] = RPMI 5 mM glucose + 10% dialyzed FBS, 15.4 µM
[33] = RPMI 5 mM glucose + 10% dialyzed FBS, 46.1 µM

SMILES	cell viability [1]	cell viability [2]	cell viability [3]	cell viability [4]	cell viability [5]	cell viability [6]	cell viability [7]	cell viability [8]	cell viability [9]	cell viability [10]	cell viability [11]	cell viability [12]	cell viability [13]	cell viability [14]	cell viability [15]	cell viability [16]	cell viability [17]	cell viability [18]	cell viability [19]	cell viability [20]	cell viability [21]	cell viability [22]	cell viability [23]	cell viability [24]	cell viability [25]	cell viability [26]	cell viability [27]	cell viability [28]	cell viability [29]	cell viability [30]	cell viability [31]	cell viability [32]	cell viability [33]
CC(N)C12CC3CC(CC(C3)C1)C2 (configuration not stated)	89.3%	104%	96.8%	110%	98.4%	107%	118%	108%	85.3%	96.1%	108%	102%	100%	120%	122%	113%	117%	118%	123%	94.5%	125%	131%	106%	91.5%	126%	98.2%	115%	115%	117%	118%	88.1%	107%	110%
N#Cc1c(NC(=O)c2cccc3ccccc23)sc2c1CCCC2	108%	115%	116%	125%	125%	105%	66%	23.2%	24.1%	19.7%	23%	119%	119%	130%	125%	119%	119%	48.4%	20.3%	16.9%	15.6%	17.9%	122%	125%	126%	137%	124%	118%	53.7%	25.5%	26.2%	18%	26.1%
Cc1c(NC(=O)OC[C@@H]2COCCN2)cn2ncnc(Nc3ccc4c(cnn4Cc4cccc(F)c4)c3)c12	74.5%	72%	85.6%	85.8%	91.5%	106%	94.5%	96.8%	103%	21.7%	25%	95.5%	95.2%	103%	103%	116%	102%	109%	104%	98.6%	15.4%	10.8%	71.7%	62.1%	78.1%	90.3%	74.8%	84%	88.5%	99.6%	85.6%	16.8%	9.72%
C[S+](=O)([O-])N1CCc2c(-c3cnc(N)nc3)nc(N3CCOCC3)nc21	88.6%	102%	91.6%	97.5%	100%	96.3%	86%	63.4%	62.7%	43.5%	30.5%	68.5%	82.1%	70.4%	71.4%	75.3%	66.3%	61%	50.5%	38.9%	22.2%	18.3%	88.7%	105%	113%	104%	92.9%	104%	98%	65.9%	55.3%	33.5%	22.2%
O=C(O[C@H]1C[C@H]2CC[C@@H](C1)[N+]21CCCC1)C(O)(c1ccccc1)c1ccccc1.[Cl-]	97.4%	96.2%	104%	103%	115%	113%	115%	115%	118%	113%	98.2%	90%	98.1%	88.4%	98.9%	103%	95.8%	97.9%	127%	109%	106%	99.9%	81%	101%	98.5%	108%	132%	122%	115%	117%	119%	117%	122%
CCC(C)(C)c1ccc(CC(C)CN2C[C@@H](C)O[C@@H](C)C2)cc1 (some centres not stated)	69%	62.1%	88.1%	87.3%	72.2%	64.7%	74.7%	75.5%	84.1%	67.8%	74.3%	80%	67.6%	87.1%	79.9%	89.4%	36.3%	91.8%	86.6%	84.5%	71.9%	76.8%	71%	67.1%	94.5%	91.7%	83.4%	78.6%	114%	82.9%	89.7%	67.9%	78%
CC(C)C(=O)Nc1ccc([N+](=O)[O-])c(C(F)(F)F)c1	103%	112%	118%	129%	122%	136%	131%	134%	138%	130%	130%	118%	115%	119%	136%	124%	140%	135%	128%	123%	116%	121%	125%	119%	133%	144%	127%	146%	142%	157%	146%	139%	122%
CN1\C(=C(\O)C2=CC=CC=C2[S+]1([O-])=O)C(=O)NC3=NC=C(C)S3	94.9%	94.8%	98.2%	103%	87.8%	85.2%	90.2%	83.1%	99.9%	96.7%	102%	74.8%	81.5%	94.5%	97.7%	78%	90.2%	103%	78.3%	104%	84%	91.3%	77.4%	99.6%	94.6%	97%	80.7%	107%	99.9%	95.1%	106%	107%	108%
O=C(O)c1ccc2c(c1)nc(Nc1cccc(Cl)c1)c1ccncc12	103%	114%	106%	105%	110%	101%	117%	102%	77.6%	35.9%	48.8%	107%	108%	98.5%	103%	111%	127%	104%	98.1%	70.7%	32.1%	46%	103%	103%	105%	99.5%	107%	125%	114%	102%	62.2%	30.4%	38.5%
O=C1c2c(O)ccc(O)c2C(=O)c2c(NCCNCCO)ccc(NCCNCCO)c21	77.4%	81%	88.6%	105%	95%	96.5%	5.15%	14.7%	4.46%	3.34%	3.77%	88.3%	99.7%	127%	116%	97.5%	79.1%	5.41%	10.6%	4.48%	2.93%	3.79%	90%	89%	96.4%	95.7%	97.9%	99%	4.03%	15.7%	4.3%	2.61%	3.1%
COC(=O)[C@@H]1[C@H]2C[C@H]3c4[nH]c5ccccc5c4CCN3C[C@@H]2CC[C@@H]1O	86.1%	90.4%	102%	110%	104%	110%	120%	115%	116%	120%	116%	94.7%	112%	122%	104%	110%	110%	135%	119%	120%	128%	125%	98.6%	109%	108%	120%	125%	124%	119%	133%	130%	133%	118%
O=C(Nc1ccccc1-c1cn2c(CN3CCNCC3)csc2n1)c1cnc2ccccc2n1	61.2%	97.4%	109%	98.1%	81.4%	81.1%	90.5%	67.5%	72.5%	48.3%	1.98%	71.4%	107%	95.2%	103%	76%	84.4%	94.8%	67.4%	54.3%	59.2%	2.64%	56.4%	93.2%	84.5%	86.5%	65.4%	80.1%	79.5%	52.6%	53.9%	37.4%	2.76%
CCN1\C=C(\C(O)=O)C(=O)C2=CC=C(C)N=C12	72.7%	70.2%	82.7%	87.4%	99%	97.5%	92%	94.8%	96.4%	19.8%	97.3%	86%	93.3%	102%	97.1%	93%	108%	90.9%	98.9%	103%	13.6%	76.5%	86.9%	82.3%	103%	97.9%	86.3%	111%	103%	96.6%	66%	21.3%	78.5%
CSCC[C@@H](NC(=O)[C@@H](Cc1ccccc1)NC(=O)CNC(=O)CNC(=O)[C@@H](N)Cc1ccc(O)cc1)C(=O)O	73.5%	44.7%	93%	22%	106%	103%	94.9%	102%	98.9%	91.6%	99.6%	72.6%	25.7%	80.9%	15.5%	103%	104%	90.5%	107%	96.6%	99.9%	120%	81.9%	38.3%	102%	20.9%	95.6%	103%	92.3%	99.7%	106%	103%	99.8%

— the supplement of paper PMC11451515
